Reference: patent US9328117B2, “Bromodomain inhibitors and uses thereof” (Constellation Pharmaceuticals, Inc., priority 2011, dated 2016)

How the values were obtained:
BRD4(BD1) = molecular target: T1, BRD4(BD1) (Homo sapiens, UniProt O60885); assay: BRD4 AlphaLisa binding assay; details: BRD4(BD1) 30 nM, biotinylated H4-tetraacetyl peptide 200 nM
T1 construct: His; made in house
Experimental: A. IC50 Measurements for Inhibitors Using BRD4 AlphaLisa Binding Assay
His/Flag epitope tagged BRD4 BD142-168 was cloned, expressed and purified to homogeneity. BRD4 binding and inhibition was assessed by monitoring the engagement of biotinylated H4-tetraacetyl peptide (Millipore #12-379) with the target using the AlphaLisa technology (Perkin-Elmer). Specifically, in a 384 well ProxiPlate BRD4(BD1) (30 nM final) was combined with peptide (200 nM final) in 40 mM HEPES (pH 7.0), 40 mM NaCl, 1 mM DTT, 0.01% (w/v) BSA, and 0.008% (w/v) Brij-35 either in the presence of DMSO (final 1.2% DMSO) or compound dilution series in DMSO. After 20 minute incubation at room temperature Alpha streptavidin donor beads and AlphaLisa anti-Flag acceptor beads were added to a final concentration of 10 ug/mL each. After three hours equilibration plates were read on an Envision instrument and IC50s calculated using a four parameter non-linear curve fit.

[1] = tested on: MYC mRNA in Raji (Burkitt lymphoma) cells; assay: cMyc RNA quantification assay (QuantiGene), Raji; type: cell-based; details: Homo sapiens, 4 h
Experimental: (§1) B. cMyc RNA quantification assay (QuantiGene® Assay)
(§2) MV4:11 (AML) or Raji (Burkitt lymphoma) cells were seeded in a 96-well plate and incubated in the presence of various concentrations of compounds for 4 h. Relative mRNA levels were quantitated by using QuantiGene 2.0 assay (Affymetrix) according to the manufacturer's recommendation. Signals were detected by using an Envision plate reader (Perkin-Elmer). Biological duplicates were averaged and normalized to vehicle (DMSO) control to calculate percent MYC mRNA levels.

[2] = tested on: IL-6 secretion in LPS-treated THP-1 cells; assay: Cell-based IL-6 quantification assay (ELISA, Mesoscale); details: Homo sapiens, LPS 4 μg/mL, 16 h, normalised to CellTiter-Glo
Experimental: C. Cell-Based IL-6 Quantification Assay (ELISA, Mesoscale Assay):
100,000 THP-1 cells were seeded in RPMI1640-10% FBS in 96-well plates. LPS (E. Coli Invitrogen) in RPMI-10% FBS at a final concentration of 4 μg/mL was added to the wells and the cells are then incubated in the presence of various concentrations of compounds for 16 h. Plates are spun ([…], 5 min), an aliquot of 25 uL supernatant is transferred in to an ELISA plate (Mesoscale technology, MSD) and the detection of IL-6 is performed using manufacturer's instructions. The amount of cells in each well is assessed using CellTiter-Glo® (Promega). The ratio of ELISA value/CellTiter-Glo value is used to calculate the percent of inhibition of IL-6 secretion.

[3] = tested on: MYC mRNA in MV4:11 (AML) cells; assay: cMyc RNA quantification assay (QuantiGene), MV4:11; type: cell-based; details: Homo sapiens; MV4-11 cells, 4 h
Experimental: as §1, §2

SMILES	IC50 (BRD4(BD1))	IC50 [1]	IC50 [2]	IC50 [3]
Cc1nnc2ccc(N3CCCC3c3ccccc3)nn12 (stereo not shown) [Compound 10, 3-methyl-6-(2-phenylpyrrolidin-1-yl)-[1,2,4]-triazolo[4,3-b]pyridazine]	> 1 µM			
Cc1nnc2ccc(N(C)[C@H](C)c3ccccc3)nn12 [Compound 4, (R)-N,3-dimethyl-N-(1-phenylethyl)-[1,2,4]triazolo[4,3-b]pyridazin-6-amine]	> 1 µM			
CCOC(=O)Nc1cc(N(C)[C@@H](C)c2ccccc2)nn2c(C)nnc12 [Compound 11]	< 0.5 µM	< 0.5 µM	< 0.5 µM	
CCNC(=O)Nc1cc(N(C)[C@@H](C)c2ccc(Cl)cc2)nn2c(C)nnc12 [Compound 13]	< 0.5 µM		< 0.5 µM	< 0.5 µM
CCNC(=O)Nc1cc(N(C)[C@@H](C)c2ccccc2)nn2c(C)nnc12 [Compound 5, (S)-1-ethyl-3-(3-methyl-6-(methyl(1-phenylethyl)amino)-[1,2,4]triazolo[4,3-b]pyridazin-8-yl)urea]	< 0.5 µM	< 0.5 µM	< 0.5 µM	
Cc1nnc2c(C(N)=O)cc(N(C)[C@@H](C)c3ccccc3)nn12 [Compound 7, (S)-3-methyl-6-(methyl(1-phenylethyl)amino)-[1,2,4]triazolo[4,3-b]pyridazine-8-carboxamide]	> 1 µM		> 1 µM	
C[C@@H](c1ccccc1)N(C)c1ccc2nnc(C#N)n2n1 [Compound 9, (S)-6-(methyl(1-phenylethyl)amino)-[1,2,4]triazolo[4,3-b]pyridazine-3-carbonitrile]	> 1 µM		> 1 µM	> 1 µM
Cc1nnc2c(N)cc(N(C)[C@@H](C)c3ccccc3)nn12 [Compound 6, (S)-N^6,3-dimethyl-N^6-(1-phenylethyl)-[1,2,4]triazolo[4,3-b]pyridazine-6,8-diamine]	< 0.5 µM		< 0.5 µM	
Cc1nnc2ccc(N(C)[C@@H](C)c3ccccc3)nn12 [Compound 3, (S)-N,3-dimethyl-N-(1-phenylethyl)-[1,2,4]triazolo[4,3-b]pyridazin-6-amine]	< 0.5 µM		> 1 µM	
CCNC(=O)Nc1cc(N(C)[C@@H](C)c2ccc(F)cc2)nn2c(C)nnc12 [Compound 12]	< 0.5 µM		< 0.5 µM	< 0.5 µM
Cc1nnc2c(NC(=O)N(C)C)cc(N(C)[C@@H](C)c3ccccc3)nn12 [Compound 8, (S)-1,1-dimethyl-3-(3-methyl-6-(methyl(1-phenylethyl)amino)-[1,2,4]triazolo[4,3-b]pyridazin-8-yl)urea]	< 0.5 µM	> 1 µM	0.5 to 1 µM	
CCNC(=O)Nc1cc(N(C)[C@@H](C)c2ccccc2)nn2c(C(F)(F)F)nnc12 [Compound 14]	< 0.5 µM		< 0.5 µM	< 0.5 µM
Cc1nnc2ccc(N(C)C(C)c3ccccc3)nn12 (stereo not shown) [Compound 2, N,3-dimethyl-N-(1-phenylethyl)-[1,2,4]triazolo[4,3-b]pyridazin-6-amine]	0.5 to 1 µM		> 1 µM	
Cc1nnc2ccc(NC(C)c3ccccc3)nn12 (racemic) [Compound 1, rac-3-methyl-N-(1-phenylethyl)-[1,2,4]triazolo[4,3-b]pyridazin-6-amine]	> 1 µM		> 1 µM	> 1 µM
